Experimental data as given in PubChem BioAssay AID256 (DTP/NCI, 2004).
Several values for one entry are separate records, joined by “and”; a condition that tells them apart may be missing. Equal values may be shown once. Toxic doses and inconclusive results are not listed. The calls were made as follows: active = survival T/C of 150% or more; inactive = T/C below 125% in these data.

Test system: CD2F1 mice, L1210 leukemia ip, survival T/C
Test: NCI In Vivo Anticancer Drug Screen. Data for tumor model L1210 Leukemia (intraperitoneal) in CD2F1 (CDF1) mice
Conditions: higher = longer survival
Procedure, shortened: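 Antitumor effect is scored in animals hosting a serially transplanted tumor. Values compare compound-dosed animals against vehicle-only controls as a simple quotient.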

[1] = endpoint: mean survival time, dose: 100.0 mg/kg/injection, schedule: Q01DX009 (ip), vehicle: saline with Tween-80
[2] = endpoint: mean survival time, dose: 100.0 mg/kg/injection, schedule: Q04DX003 (ip), vehicle: saline with Tween-80
[3] = endpoint: mean survival time, dose: 200.0 mg/kg/injection, schedule: Q01DX009 (ip), vehicle: saline with Tween-80
[4] = endpoint: mean survival time, dose: 200.0 mg/kg/injection, schedule: Q04DX003 (ip), vehicle: saline with Tween-80
[5] = endpoint: mean survival time, dose: 400.0 mg/kg/injection, schedule: Q01DX009 (ip), vehicle: saline with Tween-80
[6] = endpoint: mean survival time, dose: 400.0 mg/kg/injection, schedule: Q04DX003 (ip), vehicle: saline with Tween-80
[7] = endpoint: mean survival time, dose: 50.0 mg/kg/injection, schedule: Q04DX003 (ip), vehicle: Klucel (hydroxypropylcellulose) (HPC)
[8] = endpoint: mean survival time, dose: 100.0 mg/kg/injection, schedule: Q04DX003 (ip), vehicle: Klucel (hydroxypropylcellulose) (HPC)
[9] = endpoint: mean survival time, dose: 100.0 mg/kg/injection, schedule: Q04DX002 (ip), vehicle: saline with Tween-80
[10] = endpoint: mean survival time, dose: 100.0 mg/kg/injection, schedule: Q01DX009 (ip), vehicle: other
[11] = endpoint: mean survival time, dose: 200.0 mg/kg/injection, schedule: Q01DX009 (ip), vehicle: other
[12] = endpoint: mean survival time, dose: 12.5 mg/kg/injection, schedule: Q01DX001 (ip), vehicle: saline with Tween-80
[13] = endpoint: mean survival time, dose: 25.0 mg/kg/injection, schedule: Q01DX001 (ip), vehicle: saline with Tween-80

Measured: T/C

Cc1c2c(cc3c1[nH]c1ccccc13)C(c1ccc(Cl)cc1)=NCC2
inactive: [1] 101 % of control | [2] 101 % of control | [3] 98 % of control | [4] 89 % of control | [5] 106 % of control | [6] 88 % of control

O=C(O)CSc1cc(Cl)ccc1Cl
inactive: endpoint: mean survival time, dose: 12.5 mg/kg/injection, schedule: Q04DX003 (ip), vehicle: Klucel (hydroxypropylcellulose) (HPC) 95 % of control | endpoint: mean survival time, dose: 25.0 mg/kg/injection, schedule: Q04DX003 (ip), vehicle: Klucel (hydroxypropylcellulose) (HPC) 98 % of control | [7] 100 % of control | [8] 100 % of control

Cc1nc(N)c2ncn(C3OC(CO)C(O)C3O)c2n1 (centres undefined)
inactive: [9] 115 % of control

COc1ccc(CC(=O)O)cc1OC
inactive: [1] 94 % of control | [3] 103 % of control | [5] 89 % of control

O=C1N(Cl)C2C(N1Cl)N(Cl)C(=O)N2Cl (centres undefined)
inactive: endpoint: mean survival time, dose: 25.0 mg/kg/injection, schedule: Q04DX003 (ip), vehicle: saline with Tween-80 98 % of control | endpoint: mean survival time, dose: 50.0 mg/kg/injection, schedule: Q04DX003 (ip), vehicle: saline with Tween-80 104 % of control | [2] 89 % of control

O=[N+]([O-])c1ccc(OCCBr)cc1
inactive: [10] 91 % of control | [11] 98 % of control | endpoint: mean survival time, dose: 400.0 mg/kg/injection, schedule: Q01DX009 (ip), vehicle: other 94 % of control

CC1(C(=O)O)CC1(C)C(=O)O (centres undefined)
inactive: [1] 93 % of control | [3] 91 % of control | [5] 90 % of control

CC1=C(C)CC([P+](c2ccccc2)(c2ccccc2)c2ccccc2)CC1 (centres undefined)
inactive: endpoint: mean survival time, dose: 6.25 mg/kg/injection, schedule: Q01DX001 (ip), vehicle: saline with Tween-80 98 % of control | [12] 90 % of control | [13] 94 % of control

CCCCOP(=O)(OCCCC)[O][Pb]([CH2]C)([CH2]C)[CH2]C
inactive: endpoint: mean survival time, dose: 6.25 mg/kg/injection, schedule: Q04DX003 (ip), vehicle: saline with Tween-80 97 % of control | endpoint: mean survival time, dose: 12.5 mg/kg/injection, schedule: Q04DX003 (ip), vehicle: saline with Tween-80 92 % of control

O=C(O)CC(=O)O.[NH-]CC(O)CN=Cc1ccccc1O.[Pt] (centres undefined)
inactive: endpoint: median survival time, dose: 5.0 mg/kg/injection, schedule: Q04DX003 (ip), vehicle: water 108 % of control | endpoint: median survival time, dose: 10.0 mg/kg/injection, schedule: Q04DX003 (ip), vehicle: water 105 % of control | endpoint: median survival time, dose: 20.0 mg/kg/injection, schedule: Q04DX003 (ip), vehicle: water 108 % of control | endpoint: median survival time, dose: 25.0 mg/kg/injection, schedule: Q04DX003 (ip), vehicle: water 110 % of control | endpoint: median survival time, dose: 40.0 mg/kg/injection, schedule: Q04DX003 (ip), vehicle: water 108 % of control | endpoint: median survival time, dose: 50.0 mg/kg/injection, schedule: Q04DX003 (ip), vehicle: water 110 % of control | endpoint: median survival time, dose: 100.0 mg/kg/injection, schedule: Q04DX003 (ip), vehicle: water 105 % of control | endpoint: median survival time, dose: 200.0 mg/kg/injection, schedule: Q04DX003 (ip), vehicle: water 103 % of control

COC1OC(CO)C(O)C(O)C1O (centres undefined) (tested in a mixture with another compound)
inactive: endpoint: mean survival time, dose: 100.0 mg/kg/injection, schedule: Q01DX001 (ip), vehicle: saline with Tween-80 90 % of control | endpoint: mean survival time, dose: 200.0 mg/kg/injection, schedule: Q01DX001 (ip), vehicle: saline with Tween-80 90 % of control | endpoint: mean survival time, dose: 400.0 mg/kg/injection, schedule: Q01DX001 (ip), vehicle: saline with Tween-80 92 % of control

Cc1ccc(C(=O)Nc2cccc(-n3cnc4c(=O)[nH]c(N)nc43)c2)cc1S(=O)(=O)F
inactive: endpoint: mean survival time, dose: 50.0 mg/kg/injection, schedule: Q04DX002 (ip), vehicle: saline with Tween-80 90 % of control | [9] 101 % of control | endpoint: mean survival time, dose: 200.0 mg/kg/injection, schedule: Q04DX002 (ip), vehicle: saline with Tween-80 86 % of control

C=CC(C)(C)c1ccccc1
inactive: endpoint: mean survival time, dose: 50.0 mg/kg/injection, schedule: Q01DX009 (ip), vehicle: saline with Tween-80 93 % of control | [1] 96 % of control | [3] 98 % of control

CCOC(=O)Cc1cnc(SC)[nH]c1=O
inactive: [7] 111 % of control | [8] 106 % of control | endpoint: mean survival time, dose: 200.0 mg/kg/injection, schedule: Q04DX003 (ip), vehicle: Klucel (hydroxypropylcellulose) (HPC) 106 % of control | endpoint: mean survival time, dose: 600.0 mg/kg/injection, schedule: Q04DX003 (ip), vehicle: Klucel (hydroxypropylcellulose) (HPC) 100 % of control

O=NN1C(=O)C2CC3CC(C2)CC1C3
inactive: endpoint: mean survival time, dose: 12.5 mg/kg/injection, schedule: Q04DX003 (ip), vehicle: acetone 94 % of control

NC(=O)NC(=O)C1CCCCC1C(=O)O (centres undefined)
inactive: endpoint: mean survival time, dose: 100.0 mg/kg/injection, schedule: Q01DX001 (ip), vehicle: saline 103 % of control | endpoint: mean survival time, dose: 200.0 mg/kg/injection, schedule: Q01DX001 (ip), vehicle: saline 101 % of control | endpoint: mean survival time, dose: 400.0 mg/kg/injection, schedule: Q01DX001 (ip), vehicle: saline 109 % of control

COc1ccc2c(OC)cccc2c1
inactive: endpoint: mean survival time, dose: 100.0 mg/kg/injection, schedule: Q04DX003 (ip), vehicle: other 102 % of control | endpoint: mean survival time, dose: 200.0 mg/kg/injection, schedule: Q04DX003 (ip), vehicle: other 112 % of control | endpoint: mean survival time, dose: 400.0 mg/kg/injection, schedule: Q04DX003 (ip), vehicle: other 101 % of control

COc1cccc2c1CCC1C2CC=C2CC3(CCC21C)OCCO3 (centres undefined)
inactive: endpoint: mean survival time, dose: 100.0 mg/kg/injection, schedule: Q04DX003 (sc), vehicle: steriod suspending solution 97 % of control | endpoint: mean survival time, dose: 200.0 mg/kg/injection, schedule: Q04DX003 (sc), vehicle: steriod suspending solution 92 % of control | endpoint: mean survival time, dose: 400.0 mg/kg/injection, schedule: Q04DX003 (sc), vehicle: steriod suspending solution 94 % of control

CC(=O)OCC1OC2OC(C)(OC(C)(C)C)OC2C(OC(C)=O)C1OC(C)=O (centres undefined)
inactive: endpoint: mean survival time, dose: 12.5 mg/kg/injection, schedule: Q01DX009 (ip), vehicle: other 97 % of control | endpoint: mean survival time, dose: 25.0 mg/kg/injection, schedule: Q01DX009 (ip), vehicle: other 95 % of control | endpoint: mean survival time, dose: 50.0 mg/kg/injection, schedule: Q01DX009 (ip), vehicle: other 97 % of control | [10] 103 % of control | [11] 98 % of control

Cc1cccnc1-n1c(N)cc(=O)[nH]c1=S
inactive: [2] 97 % of control | [4] 101 % of control | [6] 100 % of control

O=C(NC1CCCCC1)NC1CCC(CC2CCCCC2)CC1 (centres undefined)
inactive: [2] 98 % of control | [4] 96 % of control | [6] 96 % of control

CSC(=S)N(C)/N=C/c1ccccc1O
inactive: [1] 97 % of control | [2] 102 % of control | [3] 93 % of control | [4] 92 % of control | [5] 92 % of control | [6] 100 % of control

CCCCCCCCCC[N+]1(C)CCC[N+](C)(CCCCCCCCCC)CC1 (centres undefined)
inactive: [12] 95 % of control | [13] 105 % of control

O=c1[nH]c2c(ccc3cnccc32)c2c1CCC2
inactive: endpoint: mean survival time, dose: 3.12 mg/kg/injection, schedule: Q01DX009 (ip), vehicle: saline 107 % of control | endpoint: mean survival time, dose: 6.25 mg/kg/injection, schedule: Q01DX009 (ip), vehicle: saline 100 % of control and 110 % of control | endpoint: mean survival time, dose: 12.5 mg/kg/injection, schedule: Q01DX009 (ip), vehicle: saline 96 % of control and 107 % of control | endpoint: mean survival time, dose: 25.0 mg/kg/injection, schedule: Q01DX009 (ip), vehicle: saline 119 % of control and 111 % of control | endpoint: mean survival time, dose: 50.0 mg/kg/injection, schedule: Q01DX009 (ip), vehicle: saline 88 % of control and 96 % of control

CCCN(CCC)S(=O)(=O)c1ccc(NC(=O)OC2CCC3(C)C(=CCC4C3CCC3(C)C(C(C)CCCC(C)C)CCC43)C2)cc1 (centres undefined)
inactive: endpoint: mean survival time, dose: 100.0 mg/kg/injection, schedule: Q01DX001 (sc), vehicle: steriod suspending solution 105 % of control | endpoint: mean survival time, dose: 200.0 mg/kg/injection, schedule: Q01DX001 (sc), vehicle: steriod suspending solution 97 % of control | endpoint: mean survival time, dose: 400.0 mg/kg/injection, schedule: Q01DX001 (sc), vehicle: steriod suspending solution 101 % of control

CSc1cccnn1
inactive: endpoint: mean survival time, dose: 100.0 mg/kg/injection, schedule: Q04DX003 (ip), vehicle: saline 93 % of control | endpoint: mean survival time, dose: 200.0 mg/kg/injection, schedule: Q04DX003 (ip), vehicle: saline 98 % of control | endpoint: mean survival time, dose: 400.0 mg/kg/injection, schedule: Q04DX003 (ip), vehicle: saline 95 % of control
